Data reported in patent US12186323B2, “Combination drugs of hypoxanthine and human immunoglobulin” (Institute of Blood Transfusion, Chinese Academy of Medical …, priority 2021, dated 2025).

System: male mice
Experiment: Analysis of intestinal injury by 12 Gy of local abdominal irradiation
Format: in vivo
Details: 12 Gy local abdominal irradiation
Method: 44 male mice were divided into 4 groups: • 1) TAI group, 10 mice; • 2) hypoxanthine group, 10 mice; • 3) IVIg group, 12 mice; • 4) IVIg+hypoxanthine group, 12 mice;
TAI group received only local abdominal irradiation.
Hypoxanthine was orally administered to the mice in hypoxanthine group 30 min before irradiation, followed by gavage through mouth every two days. The dose of hypoxanthine for each gavage was 50 mg/kg body weight.

[1] = hypoxanthine vs TAI group (FIG. 6), IVIg+hypoxanthine vs IVIg group (FIG. 8)

O=c1[nH]cnc2nc[nH]c12 [hypoxanthine]
no difference: length of the large intestine (hypoxanthine vs TAI group (FIG. 5), IVIg+hypoxanthine vs IVIg group (FIG. 7)) | level of inflammatory factor IL-6 in the small intestine [1] | level of inflammatory factor TNFα in the small intestine [1]
